Patent US20240246942A1, “KINASE INHIBITORS FOR THE TREATMENT OF NEURODEGENERATIVE DISEASES” (priority 2020, published 2024)

What was measured:
Assay in all cases: biochemical
[1] = target: T1, panel of 374 wild-type kinases (Homo sapiens, UniProt P07947); details: read-out: % Enzyme Activity (relative to DMSO controls), kinase YES/YES1
T1 construct: purchased Reaction Biology Corporation

[2] = target: T2, panel of 374 wild-type kinases (Homo sapiens, UniProt P42685); details: read-out: % Enzyme Activity (relative to DMSO controls), FRK/PTK5
T2 construct: purchased Reaction Biology Corporation

[3] = target: T3, panel of 374 wild-type kinases (Homo sapiens, UniProt Q5TCX8); details: read-out: % Enzyme Activity (relative to DMSO controls), MLK4
T3 construct: purchased Reaction Biology Corporation

[4] = target: T4, panel of 374 wild-type kinases (Homo sapiens, UniProt Q8TDX7); details: read-out: % Enzyme Activity (relative to DMSO controls), NEK7
T4 construct: purchased Reaction Biology Corporation

[5] = target: T5, panel of 374 wild-type kinases (Homo sapiens, UniProt Q92630); details: read-out: % Enzyme Activity (relative to DMSO controls), DYRK2
T5 construct: purchased Reaction Biology Corporation
T5 sequence (Q92630 1-601): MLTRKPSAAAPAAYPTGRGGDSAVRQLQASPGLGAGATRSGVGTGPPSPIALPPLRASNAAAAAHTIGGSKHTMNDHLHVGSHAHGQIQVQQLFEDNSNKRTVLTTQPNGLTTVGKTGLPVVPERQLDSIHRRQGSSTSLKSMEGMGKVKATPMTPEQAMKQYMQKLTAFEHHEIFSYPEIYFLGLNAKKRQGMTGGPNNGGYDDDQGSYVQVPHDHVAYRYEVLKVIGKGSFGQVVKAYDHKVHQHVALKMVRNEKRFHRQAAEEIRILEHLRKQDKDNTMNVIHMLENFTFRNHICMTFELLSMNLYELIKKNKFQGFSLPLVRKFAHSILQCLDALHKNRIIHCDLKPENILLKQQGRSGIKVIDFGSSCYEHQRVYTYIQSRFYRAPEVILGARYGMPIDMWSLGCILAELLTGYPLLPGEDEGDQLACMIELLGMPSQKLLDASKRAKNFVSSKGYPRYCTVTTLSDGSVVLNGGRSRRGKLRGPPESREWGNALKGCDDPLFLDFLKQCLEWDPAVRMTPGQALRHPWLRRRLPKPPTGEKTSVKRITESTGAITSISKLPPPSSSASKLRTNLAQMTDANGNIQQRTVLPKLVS

[6] = target: T6, panel of 374 wild-type kinases (Homo sapiens, UniProt Q96PY6); details: read-out: % Enzyme Activity (relative to DMSO controls), NEK1
T6 construct: purchased Reaction Biology Corporation
T6 sequence (Q96PY6 1-1258): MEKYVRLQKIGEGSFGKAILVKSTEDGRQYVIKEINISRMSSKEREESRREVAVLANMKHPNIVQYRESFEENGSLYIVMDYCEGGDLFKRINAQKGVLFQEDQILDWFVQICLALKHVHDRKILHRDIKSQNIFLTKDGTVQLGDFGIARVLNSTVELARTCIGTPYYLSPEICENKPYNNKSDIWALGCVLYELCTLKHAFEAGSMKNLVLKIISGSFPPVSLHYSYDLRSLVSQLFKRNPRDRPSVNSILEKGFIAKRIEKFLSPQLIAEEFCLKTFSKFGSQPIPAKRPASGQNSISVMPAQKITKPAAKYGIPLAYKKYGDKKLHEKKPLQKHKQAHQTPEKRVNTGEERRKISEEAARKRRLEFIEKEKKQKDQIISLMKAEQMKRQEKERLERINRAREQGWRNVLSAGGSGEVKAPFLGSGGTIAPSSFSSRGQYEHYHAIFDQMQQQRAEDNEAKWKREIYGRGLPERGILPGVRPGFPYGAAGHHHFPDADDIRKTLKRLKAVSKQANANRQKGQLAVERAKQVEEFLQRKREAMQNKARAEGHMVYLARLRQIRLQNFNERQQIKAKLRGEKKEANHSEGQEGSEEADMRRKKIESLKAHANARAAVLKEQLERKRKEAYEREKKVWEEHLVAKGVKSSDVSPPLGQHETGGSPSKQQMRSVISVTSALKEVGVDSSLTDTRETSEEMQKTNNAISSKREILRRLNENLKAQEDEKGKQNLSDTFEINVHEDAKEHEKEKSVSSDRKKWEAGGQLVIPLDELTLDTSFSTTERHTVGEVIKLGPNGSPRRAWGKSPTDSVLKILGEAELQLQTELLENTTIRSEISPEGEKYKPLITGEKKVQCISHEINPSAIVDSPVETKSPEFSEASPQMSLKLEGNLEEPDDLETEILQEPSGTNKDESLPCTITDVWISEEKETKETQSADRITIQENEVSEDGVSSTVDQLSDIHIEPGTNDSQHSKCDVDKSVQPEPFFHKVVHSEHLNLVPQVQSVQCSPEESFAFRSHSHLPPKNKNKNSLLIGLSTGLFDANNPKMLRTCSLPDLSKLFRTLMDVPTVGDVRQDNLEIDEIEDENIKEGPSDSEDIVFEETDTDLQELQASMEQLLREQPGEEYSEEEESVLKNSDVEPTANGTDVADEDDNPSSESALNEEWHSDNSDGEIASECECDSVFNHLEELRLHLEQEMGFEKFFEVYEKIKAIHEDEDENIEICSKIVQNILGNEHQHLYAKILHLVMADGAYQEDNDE

[7] = target: T7, panel of 374 wild-type kinases (Homo sapiens, UniProt Q9BXA7); details: read-out: % Enzyme Activity (relative to DMSO controls), kinase STK22D/TSSK1
T7 construct: purchased Reaction Biology Corporation
T7 sequence (Q9BXA7 1-367): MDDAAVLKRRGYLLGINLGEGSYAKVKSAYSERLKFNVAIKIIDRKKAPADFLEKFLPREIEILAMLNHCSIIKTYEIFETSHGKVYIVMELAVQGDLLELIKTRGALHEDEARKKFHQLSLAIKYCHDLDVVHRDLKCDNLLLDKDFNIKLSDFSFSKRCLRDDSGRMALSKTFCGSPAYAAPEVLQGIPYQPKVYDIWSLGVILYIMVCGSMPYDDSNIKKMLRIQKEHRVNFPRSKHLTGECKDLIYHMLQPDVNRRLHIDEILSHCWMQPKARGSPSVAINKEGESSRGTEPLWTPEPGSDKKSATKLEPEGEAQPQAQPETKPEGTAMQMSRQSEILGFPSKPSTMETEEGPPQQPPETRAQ

T3 sequence (Q5TCX8 whole entry): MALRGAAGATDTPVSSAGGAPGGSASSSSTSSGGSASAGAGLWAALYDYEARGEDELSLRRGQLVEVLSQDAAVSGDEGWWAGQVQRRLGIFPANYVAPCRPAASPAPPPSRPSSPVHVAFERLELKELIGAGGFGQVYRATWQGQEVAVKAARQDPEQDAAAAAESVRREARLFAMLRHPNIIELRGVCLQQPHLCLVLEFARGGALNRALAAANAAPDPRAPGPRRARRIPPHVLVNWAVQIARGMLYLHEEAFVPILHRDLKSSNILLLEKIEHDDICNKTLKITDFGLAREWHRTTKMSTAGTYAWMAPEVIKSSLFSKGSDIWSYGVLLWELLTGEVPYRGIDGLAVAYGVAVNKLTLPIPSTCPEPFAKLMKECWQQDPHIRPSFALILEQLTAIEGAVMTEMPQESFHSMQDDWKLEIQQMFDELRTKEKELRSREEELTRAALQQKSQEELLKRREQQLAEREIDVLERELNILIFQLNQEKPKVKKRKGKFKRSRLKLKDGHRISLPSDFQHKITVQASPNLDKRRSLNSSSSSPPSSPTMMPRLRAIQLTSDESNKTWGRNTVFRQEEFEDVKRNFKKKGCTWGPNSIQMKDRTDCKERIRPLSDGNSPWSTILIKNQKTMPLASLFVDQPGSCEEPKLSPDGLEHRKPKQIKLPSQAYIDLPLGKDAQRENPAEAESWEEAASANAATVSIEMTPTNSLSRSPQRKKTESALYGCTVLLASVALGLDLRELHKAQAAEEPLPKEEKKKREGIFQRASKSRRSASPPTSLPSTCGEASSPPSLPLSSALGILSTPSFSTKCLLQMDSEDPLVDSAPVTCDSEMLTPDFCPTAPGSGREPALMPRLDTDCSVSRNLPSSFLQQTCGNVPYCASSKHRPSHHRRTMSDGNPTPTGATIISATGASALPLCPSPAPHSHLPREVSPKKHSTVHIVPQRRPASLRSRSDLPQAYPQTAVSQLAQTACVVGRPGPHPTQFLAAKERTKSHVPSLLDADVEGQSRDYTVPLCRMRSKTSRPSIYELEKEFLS
T2 sequence (P42685 whole entry): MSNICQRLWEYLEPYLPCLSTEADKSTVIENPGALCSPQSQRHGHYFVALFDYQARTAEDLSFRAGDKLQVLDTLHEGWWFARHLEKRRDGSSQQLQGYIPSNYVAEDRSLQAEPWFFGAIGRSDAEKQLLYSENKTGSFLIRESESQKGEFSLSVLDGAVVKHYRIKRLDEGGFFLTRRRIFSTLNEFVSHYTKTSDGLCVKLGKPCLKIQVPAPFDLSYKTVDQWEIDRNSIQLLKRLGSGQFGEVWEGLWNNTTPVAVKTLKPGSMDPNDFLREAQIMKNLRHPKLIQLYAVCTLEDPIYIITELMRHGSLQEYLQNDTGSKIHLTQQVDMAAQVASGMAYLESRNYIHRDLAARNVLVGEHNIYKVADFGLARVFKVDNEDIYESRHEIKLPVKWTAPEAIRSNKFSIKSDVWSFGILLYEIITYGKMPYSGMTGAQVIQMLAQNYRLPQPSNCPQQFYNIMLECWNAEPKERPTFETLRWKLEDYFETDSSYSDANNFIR
T1 sequence (P07947 whole entry): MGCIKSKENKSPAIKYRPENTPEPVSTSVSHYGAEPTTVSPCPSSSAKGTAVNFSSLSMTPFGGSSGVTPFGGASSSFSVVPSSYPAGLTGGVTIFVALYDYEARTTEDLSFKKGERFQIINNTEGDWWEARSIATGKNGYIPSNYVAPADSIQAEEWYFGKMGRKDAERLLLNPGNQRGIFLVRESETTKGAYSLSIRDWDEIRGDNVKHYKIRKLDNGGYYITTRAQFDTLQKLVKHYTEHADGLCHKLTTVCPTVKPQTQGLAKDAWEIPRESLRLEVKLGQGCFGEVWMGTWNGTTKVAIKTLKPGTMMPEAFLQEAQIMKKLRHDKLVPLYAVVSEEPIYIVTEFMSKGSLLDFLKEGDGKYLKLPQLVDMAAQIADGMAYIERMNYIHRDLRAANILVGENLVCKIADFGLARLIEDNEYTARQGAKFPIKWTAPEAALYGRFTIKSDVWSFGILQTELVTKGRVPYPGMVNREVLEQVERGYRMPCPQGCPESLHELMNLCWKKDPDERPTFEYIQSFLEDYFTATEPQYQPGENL
T4 sequence (Q8TDX7 whole entry): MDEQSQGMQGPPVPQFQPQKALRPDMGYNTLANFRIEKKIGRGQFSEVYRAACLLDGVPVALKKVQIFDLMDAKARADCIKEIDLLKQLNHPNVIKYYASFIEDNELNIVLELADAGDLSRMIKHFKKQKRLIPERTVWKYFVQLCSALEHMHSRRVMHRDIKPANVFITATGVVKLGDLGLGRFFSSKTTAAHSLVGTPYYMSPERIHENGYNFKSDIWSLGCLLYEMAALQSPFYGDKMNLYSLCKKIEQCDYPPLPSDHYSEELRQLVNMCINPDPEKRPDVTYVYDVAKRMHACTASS

Row | SMILES | remaining activity at 5 µM [1] | remaining activity at 5 µM [2] | remaining activity at 5 µM [3] | remaining activity at 5 µM [4] | remaining activity at 5 µM [5] | remaining activity at 5 µM [6] | remaining activity at 5 µM [7] | remaining activity at 10 µM ([1]; 10 uM) | remaining activity at 10 µM ([2]; 10 uM) | remaining activity at 10 µM ([3]; 10 uM) | remaining activity at 10 µM ([4]; 10 uM) | remaining activity at 10 µM ([5]; 10 uM) | remaining activity at 10 µM ([6]; 10 uM) | remaining activity at 10 µM ([7]; 10 uM)
1 | O=C(Nc1cnn(-c2csc(C(=O)NC3COC3)c2)c1)Nc1ccccc1Cl [Compound 17, 4-(4-(3-(2-chlorophenyl)ureido)-1H-pyrazol-1-yl)-N-(oxetan-3-yl)thiophene-2-carboxamide] | 96.5% | 97.4% | 93.2% | 102% | 88.2% | 115% | 102% | – | – | – | – | – | – | –
2 | Cc1sc(C(=O)NC2COC2)cc1-n1cc(NC(=O)Nc2c(F)cccc2Cl)cn1 [Compound 27, 4-(4-(3-(2-chloro-6-fluorophenyl)ureido)-1H-pyrazol-1-yl)-5-methyl-N-(oxetan-3-yl)thiophene-2-carboxamide] | – | – | – | – | – | – | – | 81.4% | 87.3% | 85.2% | 100% | 96.3% | 90.4% | 103%
3 | O=C(Nc1cnn(-c2csc(C(=O)NC3COC3)c2)c1)Nc1c(F)cccc1Cl [Compound 25, 4-(4-(3-(2-chloro-6-fluorophenyl)ureido)-1H-pyrazol-1-yl)-N-(oxetan-3-yl)thiophene-2-carboxamide] | 91% | 95.6% | 94.3% | 88.1% | 93.6% | 77.2% | 107% | – | – | – | – | – | – | –
